{
  "source": "PubChem BioAssay AID1963827",
  "about": "(Molecular Pharmacology Branch, DTP, NCI, 2024)",
  "system": "994946-033-R-J1-PDC complex spheroid viability",
  "experiment": "Anticancer human tumor 994946-033-R-J1-PDC patient-derived melanoma cell line growth inhibition [POLQ]",
  "details": "for viability, T/C: stronger effect = lower value",
  "experimental": "Multicellular complex tumor spheroid response to Polymerase (POL) inhibitors (novobiocin, ART-558, RP6685) in combination with a variety of drugs and investigational agents in selected tumor cell lines\nThe POL inhibitors (novobiocin, ART-558, and RP6685) were evaluated both individually and in combination with standard of care and investigational anticancer small molecules within a complex spheroid model of solid tumors. . Complex spheroids include a stromal component modeled by human endothelial cells (HUVEC) and fibroblasts modeled by human mesenchymal stem cells (MSCs). The concentration ranges selected for each drug and investigational agent were based upon clinically achievable concentrations if the clinical Cmax of the agent was known.\nCompounds. The drugs and investigational agents: novobiocin (NSC847541), ART-558 (NSC835418), RP-6685 (NSC848927), peposertib (NSC802822), ceralasertib (NSC780249), elimusertib (NSC800525), camonsertib (NSC841442), AZD-1390 (NSC803789), olaparib (NSC753686), talazoparib (NSC767125), rucaparib (NSC756644), sotorasib (NSC818433), MRTX-1133 (NSC836407), SN-38 (NSC673596), topotecan (NSC609699), epotoside (NSC141540), doxorubicin (NSC123127), gemcitabine (NSC613327), 5-fluorouracil (NSC19893), paclitaxel (NSC125973), vemurafenib (NSC761431), MSA-2 (NSC828583), SN-011 (NSC837082), adavosertib (NSC754352), prexasertib (NSC758257), carboplatin (NSC241240) and oxaliplatin (NSC266046), were obtained from the National Cancer Institute (NCI) Developmental Therapeutics Program Chemical Repository (21). The FDA-approved anticancer drug set is available from the Developmental Therapeutics Program at https://dtp.cancer.gov/organization/dscb/obtaining/. […] The stock solutions were prepared in dimethyl sulfoxide (DMSO, Sigma-Aldrich, St. Louis, MO, cat. D2650), except for the platinum compounds which were prepared in saline (Quality Biological, Gaithersburg, MD, cat. 114-055-101), at 800-fold the tested concentration and stored at -70 degrees C prior to their use. All drugs and investigational agents were tested over a range starting from a high concentration at or near the clinical Cmax and decreasing in half-log increments. If the clinical Cmax for an agent had not been determined, the highest concentration tested was 10 microM, except for SN-38, which was tested at a high concentration of 1 microM.\nCell Culture. All cells were maintained in an incubator at 37 degrees C and 5% CO2 with 95% humidity. The PDC lines were cultured according to standard operating procedures established by the NCI PDMR (https://pdmr.cancer.gov). Table 3 of the manuscript, lists the cell lines along with the number of the three cell types plated to form the mct-spheroids and media for tumor cell growth. After thawing, all PDC lines, except 997537-175-T-J1-PDC and 415267-285-R-J2-PDC, were cultured in Matrigel-coated flasks prepared with a working solution of 1X Ham's F-12 nutrient mix, without supplementation (Thermo Fisher Scientific, cat. 11765054), 100 U/mL penicillin-streptomycin (Thermo Fisher Scientific, cat. 15140122), and 2.5% Matrigel (Corning Inc., Corning, NY, cat. 354248) for the first three passages. The two PDC lines 997537-175-T-J1-PDC and 415267-285-R-J2-PDC were cultured on uncoated flasks. The 857933-349-R-J2-PDC line was cultured in 6C/Colon 1B media containing advanced DMEM/F-12 (Thermo Fisher Scientific, cat. 12634028), 10 mM HEPES (Thermo Fisher Scientific, cat. 15630080), 1X GlutaMAX supplement (Thermo Fisher Scientific, cat. 35050061), 0.1 mg/mL primocin (InvivoGen, San Diego, CA, cat. ant-pm-2), 10% defined fetal bovine serum, heat inactivated (HyClone Laboratories Inc., Logan, UT, cat. SH30070.03HI), 50% L-WRN conditioned media (ATCC, cat. CRL-3276), 1.25 mM N-Acetyl-L-cysteine (Sigma-Aldrich, cat. A9165), 10 mM nicotinamide (Sigma-Aldrich, cat. N0636), 1X B-27 supplement (Thermo Fisher Scientific, cat. 17504044), 1X N-2 supplement (Thermo Fisher Scientific, cat. […]",
  "note": "Where “and” joins values, the source holds several entries; their conditions need not be identical. Equal values may be shown once.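 Also: spheroids exposed to drugs for 7 days.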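 For viability, T/C in this document: 100% = DMSO vehicle treated spheroids.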",
  "data": [
    {"compound": "CCc1c2c(nc3ccc(O)cc13)-c1cc3c(c(=O)n1C2)COC(=O)[C@]3(O)CC", "values": [
      {"measurement": "viability, T/C", "setting": "compound 0.00316 µM", "result": "17% and 30.3% and 19.5%"},
      {"measurement": "viability, T/C", "setting": "compound 0.01 µM", "result": "6.95% and 12.2% and 10.6%"},
      {"measurement": "viability, T/C", "setting": "compound 0.0316 µM", "result": "5.85% and 6.99% and 4.96%"},
      {"measurement": "viability, T/C", "setting": "compound 0.1 µM", "result": "3.9% and 5.58% and 5.13%"},
      {"measurement": "viability, T/C", "setting": "compound 0.316 µM", "result": "3.05% and 4.94% and 3.67%"},
      {"measurement": "viability, T/C", "setting": "compound 1 µM", "result": "1.76% and 2.96% and 1.2%"},
      {"measurement": "IC50", "setting": "curve of compound", "result": "< 0.00316", "unit": "µM"}
    ]},
    {"compound": "COC1C(OC(N)=O)C(O)C(Oc2ccc3c(O)c(NC(=O)c4ccc(O)c(CC=C(C)C)c4)c(=O)oc3c2C)OC1(C)C", "note": "(stereo not given)", "values": [
      {"measurement": "IC50", "setting": "compound alone, run of 10/31/2023", "result": "> 10", "unit": "µM"}
    ]},
    {"compound": "CCc1cc2c(N3CCc4c(cc(Cn5ccnc5)cc4-c4cn(C)nc4C(F)(F)F)C3=O)ccnc2c(OC)n1", "note": "+ Nc1ccc(C#CCN(C(=O)Cc2ncc(C(F)(F)F)cc2C(F)(F)F)c2ccc(F)cc2)nn1", "values": [
      {"measurement": "IC50", "setting": "curve of first compound, second compound 0.0316 µM", "result": "> 10", "unit": "µM"},
      {"measurement": "IC50", "setting": "curve of first compound, second compound 0.1 µM", "result": "> 10", "unit": "µM"},
      {"measurement": "IC50", "setting": "curve of first compound, second compound 0.316 µM", "result": "> 10", "unit": "µM"},
      {"measurement": "IC50", "setting": "curve of first compound, second compound 1 µM", "result": "> 10", "unit": "µM"},
      {"measurement": "IC50", "setting": "curve of first compound, second compound 3.16 µM", "result": "> 10", "unit": "µM"},
      {"measurement": "IC50", "setting": "curve of first compound, second compound 10 µM", "result": "> 10", "unit": "µM"},
      {"measurement": "viability, T/C", "setting": "second compound 0.0316 µM, first compound 0.0316 µM", "result": 51.5, "unit": "%"},
      {"measurement": "viability, T/C", "setting": "second compound 0.0316 µM, first compound 0.1 µM", "result": 79.4, "unit": "%"},
      {"measurement": "viability, T/C", "setting": "second compound 0.0316 µM, first compound 0.316 µM", "result": 82, "unit": "%"},
      {"measurement": "viability, T/C", "setting": "second compound 0.0316 µM, first compound 1 µM", "result": 88.2, "unit": "%"},
      {"measurement": "viability, T/C", "setting": "second compound 0.0316 µM, first compound 3.16 µM", "result": 79.6, "unit": "%"},
      {"measurement": "viability, T/C", "setting": "second compound 0.0316 µM, first compound 10 µM", "result": 79, "unit": "%"},
      {"measurement": "viability, T/C", "setting": "second compound 0.1 µM, first compound 0.0316 µM", "result": 101, "unit": "%"},
      {"measurement": "viability, T/C", "setting": "second compound 0.1 µM, first compound 0.1 µM", "result": 87.7, "unit": "%"},
      {"measurement": "viability, T/C", "setting": "second compound 0.1 µM, first compound 0.316 µM", "result": 88.6, "unit": "%"},
      {"measurement": "viability, T/C", "setting": "second compound 0.1 µM, first compound 1 µM", "result": 76.8, "unit": "%"},
      {"measurement": "viability, T/C", "setting": "second compound 0.1 µM, first compound 3.16 µM", "result": 73.8, "unit": "%"},
      {"measurement": "viability, T/C", "setting": "second compound 0.1 µM, first compound 10 µM", "result": 81.4, "unit": "%"},
      {"measurement": "viability, T/C", "setting": "second compound 0.316 µM, first compound 0.0316 µM", "result": 89.3, "unit": "%"},
      {"measurement": "viability, T/C", "setting": "second compound 0.316 µM, first compound 0.1 µM", "result": 97.6, "unit": "%"},
      {"measurement": "viability, T/C", "setting": "second compound 0.316 µM, first compound 0.316 µM", "result": 78.4, "unit": "%"},
      {"measurement": "viability, T/C", "setting": "second compound 0.316 µM, first compound 1 µM", "result": 70.6, "unit": "%"},
      {"measurement": "viability, T/C", "setting": "second compound 0.316 µM, first compound 3.16 µM", "result": 79.8, "unit": "%"},
      {"measurement": "viability, T/C", "setting": "second compound 0.316 µM, first compound 10 µM", "result": 63.9, "unit": "%"},
      {"measurement": "viability, T/C", "setting": "second compound 1 µM, first compound 0.0316 µM", "result": 98.9, "unit": "%"},
      {"measurement": "viability, T/C", "setting": "second compound 1 µM, first compound 0.1 µM", "result": 62.2, "unit": "%"},
      {"measurement": "viability, T/C", "setting": "second compound 1 µM, first compound 0.316 µM", "result": 85.1, "unit": "%"},
      {"measurement": "viability, T/C", "setting": "second compound 1 µM, first compound 1 µM", "result": 75, "unit": "%"},
      {"measurement": "viability, T/C", "setting": "second compound 1 µM, first compound 3.16 µM", "result": 86.7, "unit": "%"},
      {"measurement": "viability, T/C", "setting": "second compound 1 µM, first compound 10 µM", "result": 87.4, "unit": "%"},
      {"measurement": "viability, T/C", "setting": "second compound 3.16 µM, first compound 0.0316 µM", "result": 75.9, "unit": "%"},
      {"measurement": "viability, T/C", "setting": "second compound 3.16 µM, first compound 0.1 µM", "result": 78, "unit": "%"},
      {"measurement": "viability, T/C", "setting": "second compound 3.16 µM, first compound 0.316 µM", "result": 66.9, "unit": "%"},
      {"measurement": "viability, T/C", "setting": "second compound 3.16 µM, first compound 1 µM", "result": 79.4, "unit": "%"},
      {"measurement": "viability, T/C", "setting": "second compound 3.16 µM, first compound 3.16 µM", "result": 89.2, "unit": "%"},
      {"measurement": "viability, T/C", "setting": "second compound 3.16 µM, first compound 10 µM", "result": 66.7, "unit": "%"},
      {"measurement": "viability, T/C", "setting": "second compound 10 µM, first compound 0.0316 µM", "result": 101, "unit": "%"},
      {"measurement": "viability, T/C", "setting": "second compound 10 µM, first compound 0.1 µM", "result": 98.2, "unit": "%"},
      {"measurement": "viability, T/C", "setting": "second compound 10 µM, first compound 0.316 µM", "result": 102, "unit": "%"},
      {"measurement": "viability, T/C", "setting": "second compound 10 µM, first compound 1 µM", "result": 89.8, "unit": "%"},
      {"measurement": "viability, T/C", "setting": "second compound 10 µM, first compound 3.16 µM", "result": 80.8, "unit": "%"},
      {"measurement": "viability, T/C", "setting": "second compound 10 µM, first compound 10 µM", "result": 70.8, "unit": "%"}
    ]}
  ]
}
